Source: PMC8776063, “Aurora Kinase A Is Involved in Controlling the Localization of Aquaporin-2 in Renal Principal Cells” (International Journal of Molecular Sciences, 2022)
Like-named read-outs stand apart in the source and are kept apart here.

How the values were obtained:
[1] = target: T1, GSK3B (Homo sapiens, UniProt P49841); test: Thermal shift assay; type: binding; details: read-out: ΔTm GSK3B
T1 construct: purchased in-house thermal shift (DSF) kinase panel (SGC Frankfurt); Promega NanoBRET for AURKA/B/C
T1 sequence (P49841 35-386): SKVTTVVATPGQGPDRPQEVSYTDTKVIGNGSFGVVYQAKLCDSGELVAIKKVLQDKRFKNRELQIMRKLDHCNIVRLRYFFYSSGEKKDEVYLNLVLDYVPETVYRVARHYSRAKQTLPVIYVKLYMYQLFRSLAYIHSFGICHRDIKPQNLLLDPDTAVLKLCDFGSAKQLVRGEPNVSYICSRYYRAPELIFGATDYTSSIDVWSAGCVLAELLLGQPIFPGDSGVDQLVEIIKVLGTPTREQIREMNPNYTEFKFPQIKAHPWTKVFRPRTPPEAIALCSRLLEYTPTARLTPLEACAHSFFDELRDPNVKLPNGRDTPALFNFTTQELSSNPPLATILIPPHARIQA

[2] = target: T2, AAK1 (Homo sapiens, UniProt Q2M2I8); test: Thermal shift assay; type: binding; details: read-out: ΔTm AAK1
T2 construct: purchased in-house thermal shift (DSF) kinase panel (SGC Frankfurt); Promega NanoBRET for AURKA/B/C
T2 sequence (Q2M2I8 27-365): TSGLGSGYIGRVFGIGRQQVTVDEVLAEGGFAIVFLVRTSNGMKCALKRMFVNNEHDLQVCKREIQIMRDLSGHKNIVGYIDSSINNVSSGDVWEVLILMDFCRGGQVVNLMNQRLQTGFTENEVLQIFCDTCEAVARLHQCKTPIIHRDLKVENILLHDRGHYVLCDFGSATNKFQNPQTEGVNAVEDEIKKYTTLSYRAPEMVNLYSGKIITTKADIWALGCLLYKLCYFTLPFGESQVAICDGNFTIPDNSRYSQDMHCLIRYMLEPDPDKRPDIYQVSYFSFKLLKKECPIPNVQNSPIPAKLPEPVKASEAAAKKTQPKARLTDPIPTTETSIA

[3] = target: T3, PIM1 (Homo sapiens, UniProt P11309); test: Thermal shift assay; type: binding; details: read-out: ΔTm PIM1
T3 construct: purchased in-house thermal shift (DSF) kinase panel (SGC Frankfurt); Promega NanoBRET for AURKA/B/C
T3 sequence (P11309 whole entry): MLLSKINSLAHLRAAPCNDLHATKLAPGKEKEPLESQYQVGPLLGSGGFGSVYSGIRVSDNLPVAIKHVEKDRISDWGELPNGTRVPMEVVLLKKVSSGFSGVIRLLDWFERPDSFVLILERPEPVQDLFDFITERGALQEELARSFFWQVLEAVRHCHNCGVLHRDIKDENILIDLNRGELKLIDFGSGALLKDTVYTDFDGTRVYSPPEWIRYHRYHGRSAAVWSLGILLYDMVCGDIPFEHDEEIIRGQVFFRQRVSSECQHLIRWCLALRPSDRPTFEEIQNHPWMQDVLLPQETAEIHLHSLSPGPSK

[4] = target: T4, AURKA (Homo sapiens, UniProt O14965); test: NanoBRET assay in HEK293T cells; type: cell-based
T4 construct: full-length wild-type AURKA, AURKB, and AURKC were obtained as plasmids cloned in frame with a C-terminal NanoLuc-fusion; host or cells: HEK293T
T4 sequence (O14965 1-403): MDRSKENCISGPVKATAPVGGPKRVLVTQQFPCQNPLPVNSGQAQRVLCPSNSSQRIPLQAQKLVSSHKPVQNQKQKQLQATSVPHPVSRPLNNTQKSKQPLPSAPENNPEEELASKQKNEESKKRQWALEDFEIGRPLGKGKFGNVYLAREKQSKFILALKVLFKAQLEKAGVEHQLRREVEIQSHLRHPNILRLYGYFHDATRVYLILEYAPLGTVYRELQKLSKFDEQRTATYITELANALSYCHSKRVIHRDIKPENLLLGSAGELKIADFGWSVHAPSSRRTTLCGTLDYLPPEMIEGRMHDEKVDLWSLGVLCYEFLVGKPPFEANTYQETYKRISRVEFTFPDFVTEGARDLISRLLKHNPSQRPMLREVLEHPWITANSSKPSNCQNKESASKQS

[5] = target: T5, MAPK9 (Homo sapiens, UniProt P45984); test: Thermal shift assay; type: binding; details: read-out: ΔTm MAPK9
T5 construct: purchased in-house thermal shift (DSF) kinase panel (SGC Frankfurt); Promega NanoBRET for AURKA/B/C
T5 sequence (P45984 whole entry): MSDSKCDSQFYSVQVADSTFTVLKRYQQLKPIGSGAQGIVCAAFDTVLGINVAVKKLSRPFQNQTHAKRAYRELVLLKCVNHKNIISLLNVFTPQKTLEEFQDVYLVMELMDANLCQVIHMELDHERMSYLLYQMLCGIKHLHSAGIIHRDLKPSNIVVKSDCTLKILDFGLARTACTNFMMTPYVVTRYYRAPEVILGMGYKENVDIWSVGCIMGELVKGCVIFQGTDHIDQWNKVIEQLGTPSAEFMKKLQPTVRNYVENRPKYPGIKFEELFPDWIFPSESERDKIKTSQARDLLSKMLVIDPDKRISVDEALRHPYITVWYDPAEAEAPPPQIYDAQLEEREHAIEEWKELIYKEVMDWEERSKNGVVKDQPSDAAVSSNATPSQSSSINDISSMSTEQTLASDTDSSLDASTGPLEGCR

[6] = target: T6, FGFR2 (Homo sapiens, UniProt P21802); test: Thermal shift assay; type: binding; details: read-out: ΔTm FGFR2
T6 construct: purchased in-house thermal shift (DSF) kinase panel (SGC Frankfurt); Promega NanoBRET for AURKA/B/C
T6 sequence (P21802 458-768): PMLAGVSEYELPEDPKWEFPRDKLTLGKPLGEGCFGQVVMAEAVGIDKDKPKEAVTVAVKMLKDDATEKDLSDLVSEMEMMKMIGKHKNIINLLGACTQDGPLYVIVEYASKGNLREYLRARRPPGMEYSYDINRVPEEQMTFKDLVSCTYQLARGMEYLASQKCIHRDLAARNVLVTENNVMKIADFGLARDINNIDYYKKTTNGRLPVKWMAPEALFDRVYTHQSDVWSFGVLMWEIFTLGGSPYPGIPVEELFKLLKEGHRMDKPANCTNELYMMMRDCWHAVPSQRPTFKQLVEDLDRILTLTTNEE

[7] = target: T7, STK17A (Homo sapiens, UniProt Q9UEE5); test: Thermal shift assay; type: binding; details: read-out: ΔTm STK17A
T7 construct: purchased in-house thermal shift (DSF) kinase panel (SGC Frankfurt); Promega NanoBRET for AURKA/B/C
T7 sequence (Q9UEE5 61-321): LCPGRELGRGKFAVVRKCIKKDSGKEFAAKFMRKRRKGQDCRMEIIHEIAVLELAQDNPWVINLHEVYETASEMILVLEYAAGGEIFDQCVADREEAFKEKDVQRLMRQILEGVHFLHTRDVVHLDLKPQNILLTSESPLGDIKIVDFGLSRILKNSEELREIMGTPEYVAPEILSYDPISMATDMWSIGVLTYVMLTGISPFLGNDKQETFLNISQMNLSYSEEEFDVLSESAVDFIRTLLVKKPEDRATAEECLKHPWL

[8] = target: T8, STK39 (Homo sapiens, UniProt Q9UEW8); test: Thermal shift assay; type: binding; details: read-out: ΔTm STK39
T8 construct: purchased in-house thermal shift (DSF) kinase panel (SGC Frankfurt); Promega NanoBRET for AURKA/B/C

[9] = target: T9, PAK1 (Homo sapiens, UniProt Q13153); test: Thermal shift assay; type: binding; details: read-out: ΔTm PAK1
T9 construct: purchased in-house thermal shift (DSF) kinase panel (SGC Frankfurt); Promega NanoBRET for AURKA/B/C
T9 sequence (Q13153 249-545): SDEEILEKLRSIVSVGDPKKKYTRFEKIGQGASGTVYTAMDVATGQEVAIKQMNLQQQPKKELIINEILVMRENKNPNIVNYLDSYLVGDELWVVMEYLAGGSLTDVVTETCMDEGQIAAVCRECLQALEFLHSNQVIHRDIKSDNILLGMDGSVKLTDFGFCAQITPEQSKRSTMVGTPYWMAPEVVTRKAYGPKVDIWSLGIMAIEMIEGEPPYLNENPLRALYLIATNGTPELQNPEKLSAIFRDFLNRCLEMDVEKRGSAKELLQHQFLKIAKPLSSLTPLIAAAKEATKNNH

[10] = target: T10, CAMKK2 (Homo sapiens, UniProt Q96RR4); test: Thermal shift assay; type: binding; details: read-out: ΔTm CAMKK2
T10 construct: purchased in-house thermal shift (DSF) kinase panel (SGC Frankfurt); Promega NanoBRET for AURKA/B/C
T10 sequence (Q96RR4 161-449): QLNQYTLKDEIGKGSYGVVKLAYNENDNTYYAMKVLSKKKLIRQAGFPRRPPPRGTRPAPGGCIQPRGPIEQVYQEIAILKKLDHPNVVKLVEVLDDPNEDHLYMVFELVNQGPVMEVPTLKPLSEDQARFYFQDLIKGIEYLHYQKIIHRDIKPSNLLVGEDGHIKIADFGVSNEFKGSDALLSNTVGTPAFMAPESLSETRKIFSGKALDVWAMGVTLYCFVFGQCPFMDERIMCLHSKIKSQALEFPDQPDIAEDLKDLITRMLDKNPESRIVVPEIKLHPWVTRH

[11] = target: T11, STK3 (Homo sapiens, UniProt Q13188); test: Thermal shift assay; type: binding; details: read-out: ΔTm STK3
T11 construct: purchased in-house thermal shift (DSF) kinase panel (SGC Frankfurt); Promega NanoBRET for AURKA/B/C
T11 sequence (Q13188 16-313): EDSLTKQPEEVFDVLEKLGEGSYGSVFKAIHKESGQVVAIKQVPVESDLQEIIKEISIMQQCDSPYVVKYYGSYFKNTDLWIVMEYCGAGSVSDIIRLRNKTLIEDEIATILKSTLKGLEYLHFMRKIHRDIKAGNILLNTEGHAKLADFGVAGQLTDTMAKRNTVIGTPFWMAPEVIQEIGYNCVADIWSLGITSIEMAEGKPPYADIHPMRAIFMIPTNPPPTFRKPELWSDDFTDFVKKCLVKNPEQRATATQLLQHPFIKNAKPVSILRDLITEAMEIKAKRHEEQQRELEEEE

[12] = test system: CFL1 phosphorylation in MCD4 cells; test: CFL1 phosphorylation, Western blotting; type: cell-based, mouse; details: compound 30 µM, 1 h; for CFL1 phosphorylation: absence and presence of forskolin; for CFL1 phosphorylation in combination with forskolin: forskolin 30 µM, 30 min
[13] = target: T12, AKT3 (Homo sapiens, UniProt Q9Y243); test: Thermal shift assay; type: binding; details: read-out: ΔTm AKT3
T12 construct: purchased in-house thermal shift (DSF) kinase panel (SGC Frankfurt); Promega NanoBRET for AURKA/B/C
T12 sequence (Q9Y243 148-479): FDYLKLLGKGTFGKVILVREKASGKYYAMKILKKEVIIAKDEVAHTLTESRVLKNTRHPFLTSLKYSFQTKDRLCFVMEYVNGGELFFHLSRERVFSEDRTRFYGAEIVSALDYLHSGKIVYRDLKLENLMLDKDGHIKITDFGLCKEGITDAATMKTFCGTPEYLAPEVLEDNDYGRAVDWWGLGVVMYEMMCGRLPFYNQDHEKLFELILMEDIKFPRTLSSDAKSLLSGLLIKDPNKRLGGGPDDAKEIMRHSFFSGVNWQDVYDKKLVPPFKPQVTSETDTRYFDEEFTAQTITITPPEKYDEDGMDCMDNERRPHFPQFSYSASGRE

[14] = target: T13, TTK (Homo sapiens, UniProt P33981); test: Thermal shift assay; type: binding; details: read-out: ΔTm TTK
T13 construct: purchased in-house thermal shift (DSF) kinase panel (SGC Frankfurt); Promega NanoBRET for AURKA/B/C
T13 sequence (P33981 519-808): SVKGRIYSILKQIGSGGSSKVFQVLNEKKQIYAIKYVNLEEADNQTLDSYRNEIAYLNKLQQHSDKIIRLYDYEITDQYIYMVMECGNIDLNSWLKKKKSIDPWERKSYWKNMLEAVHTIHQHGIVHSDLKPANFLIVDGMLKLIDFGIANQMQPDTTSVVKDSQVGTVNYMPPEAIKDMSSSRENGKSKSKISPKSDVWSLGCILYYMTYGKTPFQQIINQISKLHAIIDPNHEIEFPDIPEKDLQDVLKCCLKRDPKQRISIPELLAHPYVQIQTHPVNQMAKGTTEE

[15] = target: T14, BMX (Homo sapiens, UniProt P51813); test: Thermal shift assay; type: binding; details: read-out: ΔTm BMX
T14 construct: purchased in-house thermal shift (DSF) kinase panel (SGC Frankfurt); Promega NanoBRET for AURKA/B/C
T14 sequence (P51813 411-675): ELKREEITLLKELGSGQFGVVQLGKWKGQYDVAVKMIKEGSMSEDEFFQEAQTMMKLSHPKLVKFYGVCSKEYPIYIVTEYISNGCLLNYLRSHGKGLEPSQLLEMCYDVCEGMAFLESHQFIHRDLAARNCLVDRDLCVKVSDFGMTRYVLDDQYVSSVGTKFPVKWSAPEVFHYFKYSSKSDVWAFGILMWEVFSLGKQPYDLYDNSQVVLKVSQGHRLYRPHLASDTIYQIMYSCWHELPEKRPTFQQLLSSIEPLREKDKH

[16] = target: T15, PHKG2 (Homo sapiens, UniProt P15735); test: Thermal shift assay; type: binding; details: read-out: ΔTm PHKG2
T15 construct: purchased in-house thermal shift (DSF) kinase panel (SGC Frankfurt); Promega NanoBRET for AURKA/B/C
T15 sequence (P15735 6-293): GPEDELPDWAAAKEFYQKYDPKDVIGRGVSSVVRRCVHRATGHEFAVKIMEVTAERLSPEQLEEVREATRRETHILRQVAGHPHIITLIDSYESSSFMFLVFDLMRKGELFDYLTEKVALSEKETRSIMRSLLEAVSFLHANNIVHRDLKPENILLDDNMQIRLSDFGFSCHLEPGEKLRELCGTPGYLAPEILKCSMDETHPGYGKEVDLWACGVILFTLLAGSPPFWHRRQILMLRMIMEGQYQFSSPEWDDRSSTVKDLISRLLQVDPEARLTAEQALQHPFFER

[17] = NanoBRET, HEK293T cells overexpressing the kinase, Table 2, read-out: AURKA IC50

CCN1CCN(C(=O)Cc2ccc(Nc3ncc(F)c(Nc4ccc(C(=O)Nc5ccccc5Cl)cc4)n3)cc2)CC1 [Aurora-A inhibitor I, reference compound]
ΔTm at 10 µM [1]: 3.1 °C
ΔTm at 10 µM [2]: 2.3 °C
ΔTm at 10 µM [3]: 0.2 °C
IC50 [4]: 0.183 µM
ΔTm at 10 µM [5]: 2.9 °C
ΔTm at 10 µM [6]: 2.5 °C
ΔTm at 10 µM [7]: 1.9 °C
ΔTm at 10 µM [8]: 2.4 °C
ΔTm at 10 µM [9]: 0.5 °C
ΔTm at 10 µM [10]: 2.3 °C
ΔTm at 10 µM [11]: 2.6 °C
CFL1 phosphorylation [12]: significantly decreased
CFL1 phosphorylation in combination with forskolin [12]: Significant additive effects
ΔTm at 10 µM [13]: 0.2 °C
ΔTm at 10 µM [14]: 1.9 °C
ΔTm at 10 µM [15]: 2.1 °C
ΔTm at 10 µM [16]: 0.7 °C

O=C(Cc1ccc(Nc2ncc(F)c(Nc3ccc(C(=O)Nc4ccccc4Cl)cc3)n2)cc1)NCCN1CCOCC1 [ERJ2-04]
ΔTm at 10 µM ([1]; compound 10 µM, n = 3): 2 °C
ΔTm at 10 µM ([2]; compound 10 µM, n = 3): 4.4 °C
ΔTm at 10 µM ([3]; compound 10 µM, n = 3): -0.2 °C
IC50 ([4]; NanoBRET, n = 2, mean, Figure 6B, read-out: affinity to intracellular AURKA): 0.558 µM
ΔTm at 10 µM ([5]; compound 10 µM, n = 3): 1.9 °C
ΔTm at 10 µM ([6]; compound 10 µM, n = 3): 1.5 °C
ΔTm at 10 µM ([7]; compound 10 µM, n = 3): 1.4 °C
ΔTm at 10 µM ([8]; compound 10 µM, n = 3): 2.1 °C
ΔTm at 10 µM ([9]; compound 10 µM, n = 3): 0.6 °C
ΔTm at 10 µM ([10]; compound 10 µM, n = 3): 1.3 °C
ΔTm at 10 µM ([11]; compound 10 µM, n = 3): 1.3 °C
CFL1 phosphorylation in combination with forskolin [12]: Significant additive effects
ΔTm at 10 µM ([13]; compound 10 µM, n = 3): -0.1 °C
ΔTm at 10 µM ([14]; compound 10 µM, n = 3): 1.8 °C
ΔTm at 10 µM ([15]; compound 10 µM, n = 3): 1.5 °C
ΔTm at 10 µM ([16]; compound 10 µM, n = 3): 0.3 °C

NC(=O)Cc1ccc(Nc2ncc(F)c(Nc3ccc(C(=O)Nc4ccccc4Cl)cc3)n2)cc1 [ERJ2-06]
ΔTm at 10 µM ([1]; compound 10 µM, n = 3): 3.1 °C
ΔTm at 10 µM ([2]; compound 10 µM, n = 3): 6.8 °C
ΔTm at 10 µM ([3]; compound 10 µM, n = 3): 0.2 °C
IC50 [4, 17]: 0.165 µM
ΔTm at 10 µM ([5]; compound 10 µM, n = 3): 2.9 °C
ΔTm at 10 µM ([6]; compound 10 µM, n = 3): 2.4 °C
ΔTm at 10 µM ([7]; compound 10 µM, n = 3): 2.2 °C
ΔTm at 10 µM ([8]; compound 10 µM, n = 3): 2.4 °C
ΔTm at 10 µM ([9]; compound 10 µM, n = 3): 0.7 °C
ΔTm at 10 µM ([10]; compound 10 µM, n = 3): 2.2 °C
ΔTm at 10 µM ([11]; compound 10 µM, n = 3): 3.1 °C
CFL1 phosphorylation in combination with forskolin [12]: Significant additive effects
ΔTm at 10 µM ([13]; compound 10 µM, n = 3): 0.1 °C
ΔTm at 10 µM ([14]; compound 10 µM, n = 3): 2.4 °C
ΔTm at 10 µM ([15]; compound 10 µM, n = 3): 2.1 °C
ΔTm at 10 µM ([16]; compound 10 µM, n = 3): 0.9 °C

CCN1CCN(C(=O)Cc2ccc(Nc3ncc(F)c(Nc4ccc(C(=O)Nc5ccccc5)cc4)n3)cc2)CC1 [ERJ2-11]
ΔTm at 10 µM ([1]; compound 10 µM, n = 3): 3.6 °C
ΔTm at 10 µM ([2]; compound 10 µM, n = 3): 7.3 °C
ΔTm at 10 µM ([3]; compound 10 µM, n = 3): 0.4 °C
IC50 [4, 17]: 0.767 µM
ΔTm at 10 µM ([5]; compound 10 µM, n = 3): 2.8 °C
ΔTm at 10 µM ([6]; compound 10 µM, n = 3): 2.9 °C
ΔTm at 10 µM ([7]; compound 10 µM, n = 3): 1.8 °C
ΔTm at 10 µM ([8]; compound 10 µM, n = 3): 2.6 °C
ΔTm at 10 µM ([9]; compound 10 µM, n = 3): 0.5 °C
ΔTm at 10 µM ([10]; compound 10 µM, n = 3): 3.1 °C
ΔTm at 10 µM ([11]; compound 10 µM, n = 3): 2 °C
CFL1 phosphorylation in combination with forskolin [12]: Significant additive effects
ΔTm at 10 µM ([13]; compound 10 µM, n = 3): 0.1 °C
ΔTm at 10 µM ([14]; compound 10 µM, n = 3): 2.2 °C
ΔTm at 10 µM ([15]; compound 10 µM, n = 3): 2.7 °C
ΔTm at 10 µM ([16]; compound 10 µM, n = 3): 0.8 °C

CCN1CCN(C(=O)Cc2ccc(Nc3ncc(F)c(Nc4ccc(C(=O)O)cc4)n3)cc2)CC1 [ERJ2-12]
ΔTm at 10 µM ([1]; compound 10 µM, n = 3): 1 °C
ΔTm at 10 µM ([2]; compound 10 µM, n = 3): 3.8 °C
ΔTm at 10 µM ([3]; compound 10 µM, n = 3): 1.1 °C
IC50 [4, 17]: > 50 µM
ΔTm at 10 µM ([5]; compound 10 µM, n = 3): 3 °C
ΔTm at 10 µM ([6]; compound 10 µM, n = 3): 2.9 °C
ΔTm at 10 µM ([7]; compound 10 µM, n = 3): 0.4 °C
ΔTm at 10 µM ([8]; compound 10 µM, n = 3): 0.2 °C
ΔTm at 10 µM ([9]; compound 10 µM, n = 3): 0.2 °C
ΔTm at 10 µM ([10]; compound 10 µM, n = 3): 1.8 °C
ΔTm at 10 µM ([11]; compound 10 µM, n = 3): 0.1 °C
CFL1 phosphorylation [12]: no effect
ΔTm at 10 µM ([13]; compound 10 µM, n = 3): -0.1 °C
ΔTm at 10 µM ([14]; compound 10 µM, n = 3): 0.6 °C
ΔTm at 10 µM ([15]; compound 10 µM, n = 3): 0.9 °C
ΔTm at 10 µM ([16]; compound 10 µM, n = 3): 0.2 °C
